One molecule from patent US6730704B2, “1-(aryloxy)propionoyl-2-arylsulfonyl hydrazines, process for preparation thereof and use thereof as hypoglycemic agents” (Council of Scientific & Industrial Research, priority 2002, dated 2004) can be followed below.

SMILES strings stand for the structures.

The test system of test [1] is Streptozotocin induced diabetic rats. The test is described as follows: Hypoglycemic activity in Streptozotocin induced diabetic rats. To be noted: Streptozotocin (50 mg/kg i.v.) diabetic Wistar rats; Glibenclamide 1 mg/kg daily for 14 days; vs reading before drug administration. The class given is in vivo. On the procedure:
Hypoglycemic Activity in Streptozotocin Induced Diabetic Rats:
Wistar rats of either sex weighting 150-180 gms were used in this study and were divided into control, standard and test groups each consisting of 6 rats. Basal glucose levels were taken for all rats. Diabetes was induced by administering Streptozotocin in the dose of 50 mg/kg intravenously to the rats in all the groups. After a period of 48 hrs glucose levels were again measured and rats that have shown glucose levels of 400±20 mg/dl were selected. Glibenclamide (1 mg/kg) and the test compounds (50 mg/kg) were administered as 1% gum acacia suspension daily for a period of 14 days. At the end of 14 days after the last dose, blood glucose levels were again measured and the percent reduction in blood glucose was measured for all the rats in all the groups with respect to the initial reading before drug administration.

A further test has as its system normoglycemic rats. The test is described as follows: Hypoglycemic activity in normal rats. The class given is in vivo. As to conditions: fasted normal Wistar rats; Glibenclamide 5 mg/kg per oral; reduction vs basal glucose, measured 1-6 hr, time of value not stated. On the procedure: Hypoglycemic Activity in Normal Rats:
Wistar rats of either sex weighing 150-180 gms were fasted overnight and divided into control, standard and test groups each consisting of 6 rats. The standard drug, Glibenclamide, was administered in the dose of 5 mg/kg per oral to the rats. All test compounds were administered in the dose of 200 mg/kg per oral to the test groups. Both standard and test drugs were administered as 1% gum acacia suspension. Control group received vehicle only. Blood glucose levels were measured before drugs administration at 0 hr and at 1 hr, 2 hr, 4 hr and 6 hr after drugs administration. Percent reduction of blood glucose levels at different time intervals was calculated with reference to basal glucose levels. All the blood glucose estimations were done using GOD/POD method and were analyzed using Auto Blood Analyzer (Technicon RA-1000, Bayer Diagnostics, Ireland). The standard drug (Glibenclamide) has shown a percent inhibition of glucose 65.1 and all the test compounds (1 to 9 examples) have shown percent inhibition in range of 48.5 to 63.2 (FIG. 1)

For `COc1ccc(Cl)cc1C(=O)NCCc1ccc(S(=O)(=O)NC(=O)NC2CCCCC2)cc1` [Glibenclamide], the “hypoglycemic activity expressed as percent inhibition of blood glucose levels” value in test [1] is 68.2%. In addition, the “percent inhibition of glucose” value in the test on normoglycemic rats was 65.1%.
